Source: patent US5021439A, “Cerebral function ameliorating agents related to Tan-950 A” (priority 1988, dated 1991)
pIC50: −log10 of the molar value. Like-named read-outs stand apart in the source and are kept apart here.

What was measured:
[1] = biological target: NMDA-type receptor; test: Binding assay of NMDA-type receptor (3H-CPP) on rat forebrain crude synaptic membrane; conditions: for pIC50: 10 nM 3H-CPP, pH 7.1, 0° C., 15 min, read-out: Affinity to NMDA-type receptor (3H-CPP), IC50; for Affinity to the NMDA-type-receptor (in words): summary of Table 5
From the text: (§1) The receptors of the exitatory amino acid (especially, glutamate) are classified into NMDA type, Quisqualate type and Kainate type. 3H-CPP [3-(2-carboxypiperazin-4-yl)propyl-1-[…]] as the ligand (a radio active substance which has high affinity for the receptor) for the NMDA-type-receptor, ^3 H-AMPA (DL-α-amino-3-hydroxy-5-methylisoxazole-4-propionic acid) as the ligand for the quisqualate-type-receptor, and ^3 H-kainic acid as the ligand for the kainate-type-receptor were used respectively. A sample of the crude synaptic membrane prepared from the forebrain of rat was washed 4 times by Tris hydrochloric acid buffer (pH 7.1) and kept in a freezing condition at -20° C. until its use.
(§2) Samples of the frozen crude synaptic membrane were melted and, after floating on 50 mM Tris hydrochloric acid buffer (pH 7.1), incubated for 30 minutes at 37° C. After the incubation, the synaptic membrane was centrifuged (48,000×g) and washed 3 times with 50 mM Tris hydrochloric acid buffer and used in the test.
(§3) In the binding assay of the NMDA-type-receptor, samples of the synaptic membrane were incubated in the presence or absence of a test compound together with 10 nM ^3 H-CPP in 50 mM Tris hydrochloric acid buffer (pH 7.1, 0° C.) for 15 minutes. The sediment (pellet) containing synapse membrane which was recovered by centrifugation of the incubation solution was rinsed with 50 mM Tris hydrochloric acid buffer (pH 7.1) and dissolved in 0.5 ml of Protosol® (made by New England Nuclear Inc.). In the binding assay of Quisqualate-type-receptor and Kainate-type-receptor, samples of the synapse was incubated in the presence or absence of a test compound in 5 nM ^3 H-AMPA (Quisqualate-type-receptor) or 2 nM ^3 H-Kainic acid (Kainate-type-receptor) together with 50 mM Tris hydrochloric acid buffer (pH 7.1, 0° C.) for 90 minutes. The solution was filtered with Whatman GF/B filter (Whatman®, made by Whatman Inc.) under reduced pressure and the filter was washed 3 times with 50 mM Tris hydrochloric acid buffer. The radioactivity on the filter was measured by a conventional method. The specific binding amount was determined by subtracting the non-specific binding from the total binding, taking the binding in the presence of an excessive non-radioactive L-sodium glutamate (1 mM) as the amount of the non-specfic binding, i.e., the binding to anything other than the receptor. The 50% inhibiting concentration (IC50) of the compound to be tested was determined as the concentration which inhibits 50% of the specific receptor binding of ^3 H-CPP, ^3 H-AMPA or ^3 H-kainic acid.

[2] = biological target: Quisqualate-type receptor; test: Binding assay of Quisqualate-type receptor (3H-AMPA) on rat forebrain crude synaptic membrane; conditions: for pIC50: 5 nM 3H-AMPA, pH 7.1, 0° C., 90 min, read-out: Affinity to Quisqulate-type receptor (3H-AMPA), IC50; for Affinity to the Quisqualate-type-receptor (in words): summary of Table 5
From the text: as §1, §2
as §3, with “receptor.” for “receptor. The 50% inhibiting concentration (IC50) of the compound to be tested was determined as the concentration which inhibits 50% of the specific receptor binding of ^3 H-CPP, ^3 H-AMPA or ^3 H-kainic acid.”

[3] = biological target: Kainate-type receptor; test: Binding assay of Kainate-type receptor (3H-kainic acid) on rat forebrain crude synaptic membrane; conditions: for Affinity to Kainate-type receptor (3H-KA), IC50: 2 nM 3H-Kainic acid, pH 7.1, 0° C., 90 min; for Affinity to the Kainate-type-receptor (in words): summary of Table 5
From the text: as §1, §2
as §3, with “receptor.” for “receptor. The 50% inhibiting concentration (IC50) of the compound to be tested was determined as the concentration which inhibits 50% of the specific receptor binding of ^3 H-CPP, ^3 H-AMPA or ^3 H-kainic acid.”

[4] = system: glutamate receptor (NMDA type, Quisqualate type and Kainate type); test: Affinity for the glutamate receptors of the brain, 3 sub-types taken together; type: binding, rat; conditions: summary of Table 5
From the text: as §1, §2, §3

[5] = system: neurons of rat hippocampus; test: Excitatory action on neurons of rat hippocampus in vitro (CA1 spike recording in slices); type: cell-based; conditions: rat hippocampal slices, CA1 pyramidal cell layer, Krebs-Ringer solution 33° C., read-out: Minimum effective concentration to induce firing of hippocampus nervous cell
Procedure: Male Wister rats (body weight: 300 -350 g) were used in the test. After cutting the head of rats, the brain was quickly taken out and […] thickness of the sliced samples of a hippocampus was prepared by a slice cutter. These samples were incubated in a nutrient solution (Krebs-Ringer solution, 33° C.) saturated with a mixed gas of 95% of oxygen gas and 5% of carbon dioxide gas for one or more hours. The test was carried out in the perfusion cisterna with perfusing at the flow speed of 1.5 ml/min. The action potential (spike) in CA1 pyramidal cell layer of the hippocampus was recorded extracellularlly by using a glass electrode filled with 2M NaCl solution. The test compounds were added to the perfusate and the change in number of the spikes with passage of time was counted by a pulse counter and recorded on the recorder. The Krebs-Ringer's solution contains 124 mM of NaCl, 5 mM of KCl, 1.24 mM of KH2 PO4, 1.3 mM of MgSO4, 2.4 mM of CaCL2, 26 mM of […] and 10 mM of glucose.

[6] = system: Memory Dysfunction Induced by Cycloheximide Administration; test: Improvement of cycloheximide-induced memory dysfunction, passive avoidance in mice; type: in vivo, C57BL/b mice; conditions: for Tested Retention Time (percentage to control group), latency: i.p., twice, 30 min before acquisition and before retention test, memory impairment group = 100; for Effect on memory dysfunction / latency (in words): mouse, in vivo
Procedure: Experimental memory disturbance was induced by administering a protein synthesis inhibiting agent, cycloheximide to C57BL/b male mice of 5 week-age. The memory test was carried out using a passive avoidance learning equipment consisting of two chambers of dark and bright. At first, a memory acquisition process of mice was carried out. In this process, a mouse was released in the bright chamber and the guillotine type door connecting between bright and dark chambers was open. Immediately after the mouse that likes a dark place having entered into the dark chamber, said guillotine type door was closed and an electric shock of 0.4 mA was given to the mouse for 3 seconds through the floor grid. Mice learned through this process to receive electric shock from the floor once they move to the dark chamber. However, the memory formation in mice that received cycloheximide (60 mg/Kg) subcutaneously 30 minutes before this memory acquisition process becomes insufficient. The memory retention test was carried out in accordance with similar procedures with mice which received cycloheximide (memory dysfunction group) and normal mice on the next day that the memory acquisition process was carried out. A time from the release of mice in the bright chamber to the entry into the dark chamber through the guillotine type door opened was measured (latency). The latency was shorter in the memory dysfunction group and the effectiveness of the compounds was determined in terms of a degree of the prolongation of latency. The test compounds were intraperitoneally administered twice in total to the mice each 30 minutes before the memory acquisition process and the memory keeping test.
The effect of the compounds in improving a memory dysfunction was expressed as a percentage in which the latency in the memory impairment group at the memory retention test was regarded as 100, and the results are shown in Table 7.

| Compound | pIC50 [1] | pIC50 [2] | Affinity to the Quisqualate-type-receptor (in words) [2] | Affinity to Kainate-type receptor (3H-KA), IC50 [3] [µM] | Affinity to the 3 sub-type receptors (in words) [4] | minimal effective concentration ([5]; Rattus norvegicus, Neuron) [µM] | Tested Retention Time (percentage to control group), latency ([6]; 1 mg/kg) | Tested Retention Time (percentage to control group), latency ([6]; 10 mg/kg, * in table: p < 0.05) | Effect on memory dysfunction / latency (in words) [6] | Affinity to the NMDA-type-receptor (in words) [1] | minimal effective concentration ([5]; listed as 72 (hydrochloride)) [µM] | Affinity to the Kainate-type-receptor (in words) [3] |
| --- | --- | --- | --- | --- | --- | --- | --- | --- | --- | --- | --- | --- |
| Cc1[nH]oc(=O)c1C[C@@H](N)C(=O)O [Compound 78] | 4.17 | 5.41 | strong affinity | 98 | high affinities to the 3 sub-type receptors | ≥ 30 | 179 percentage to control group | 222 percentage to control group | prolong the latency significantly |  |  |  |
| N[C@@H](Cc1c(C2CCCC2)[nH]oc1=O)C(=O)O [Compound 158] | < 4.00 | 6.51 | strong affinity | 57 | differences in their affinities | ≥ 0.3 |  |  |  |  |  |  |
| N[C@H](Cc1c[nH]oc1=O)C(=O)O [Compound 72] | 5.21 | 4.85 |  | 37 | high affinities to the 3 sub-type receptors | ≥ 300 | 217 percentage to control group | 278 percentage to control group | prolong the latency significantly | high affinity | 300 |  |
| N[C@@H](C(=O)O)c1c[nH]oc1=O [Compound 149] | 5.24 | < 4.00 |  | > 100 | differences in their affinities | ≥ 30 |  |  |  | high affinity |  |  |
| CC(C)c1[nH]oc(=O)c1C[C@H](N)C(=O)O [Compound 84] | < 4.00 | 5.42 |  | 67 | high affinities to the 3 sub-type receptors | ≥ 3 |  |  |  |  |  |  |
| CCc1[nH]oc(=O)c1[C@@H](N)C(=O)O [Compound 180] | 5.10 | < 4.00 |  | > 100 | differences in their affinities | ≥ 30 |  |  |  | high affinity |  |  |
| CCc1[nH]oc(=O)c1C[C@H](N)C(=O)O [Compound 81] | 4.46 | 6.17 | strong affinity | 17 | high affinities to the 3 sub-type receptors | ≥ 1 |  |  |  |  |  |  |
| Cc1[nH]oc(=O)c1C[C@H](N)C(=O)O [Compound 75] | 4.96 | 6.51 | strong affinity | 7.3 | high affinities to the 3 sub-type receptors | ≥ 1 | 205 percentage to control group | 184 percentage to control group | prolong the latency significantly |  |  | strong affinity |
| Cc1[nH]oc(=O)c1[C@@H](N)C(=O)O [Compound 155] | 5.08 | < 4.00 |  | > 100 | differences in their affinities | ≥ 10 |  |  |  | high affinity |  |  |
| N[C@@H](Cc1c(C2CC2)[nH]oc1=O)C(=O)O [Compound 173] | 4.89 | 6.92 | strong affinity | 3.8 | high affinities to the 3 sub-type receptors | ≥ 0.3 |  |  |  |  |  | strong affinity |
| N[C@@H](CCC(=O)O)C(=O)O [Glutamic acid, reference compound] |  |  |  |  |  |  |  | 101 percentage to control group |  |  |  |  |
| N[C@@H](Cc1c[nH]oc1=O)C(=O)N1CCCCC1C(=O)O (stereo partly shown) [Compound 132] | 5.20 | 6.00 | strong affinity | 4.5 | high affinities to the 3 sub-type receptors | ≥ 300 |  |  |  | high affinity |  | strong affinity |
| N[C@@H](Cc1c(-c2ccccc2)[nH]oc1=O)C(=O)O [Compound 87] | 4.96 | 4.82 |  | 26 | high affinities to the 3 sub-type receptors | 30 |  |  |  |  |  |  |
